# Measurements: publication PMC4767605 (Cancer chemotherapy and pharmacology, 2016)
# Test: Phase I study: plasma pharmacokinetics of ASP9853 and docetaxel
# Format: in vivo, human
# Conditions: for Median ASP9853 Cmax / Median AUC24 for ASP9853: Cycle 1/Day 1
# [1] = Cohort 1: ASP9853 25 mg + docetaxel 60 mg/m^2
# [2] = Cohort 2: ASP9853 25 mg + docetaxel 75 mg/m^2
# [3] = Cohort 3: ASP9853 37.5 mg + docetaxel 60 mg/m^2
# [4] = Cohort 4: ASP9853 50 mg + docetaxel 60 mg/m^2
compound,measurement,setting,value
"O.O.O=C(/C=C/c1ccc(Cl)cc1)N[C@@H](Cc1ccccn1)C(=O)NCC(=O)N1CCC(Oc2cc(C(F)(F)F)ncn2)CC1 [ASP9853, (2E)-3-(4-chlorophenyl)-N-[(1S)-2-oxo-2-{[2-oxo-2-(4-{[6-(trifluoromethyl)-4-pyrimidinyl]oxy}-1-piperidinyl)ethyl]amino}-1-(2-pyridinylmethyl)ethyl]acrylamide dehydrate]",ASP9853 PK profiles in patients with versus without neutropenic DLTs,"Cycle 1, Day 1, high interpatient variability",no clear difference
same,Median ASP9853 Cmax,[1],747 ng/mL
same,Median AUC24 for ASP9853,[1],3769 ng·h/mL
same,Median ASP9853 Cmax,[2],1019 ng/mL
same,Median AUC24 for ASP9853,[2],8839 ng·h/mL
same,Median ASP9853 Cmax,[3],2450 ng/mL
same,Median AUC24 for ASP9853,[3],7075 ng·h/mL
same,Median ASP9853 Cmax,[4],1490 ng/mL
same,Median AUC24 for ASP9853,[4],6922 ng·h/mL
same,ASP9853 cleared from plasma within 24 hours after administration,in vivo,more than 95%
same,Tmax of ASP9853,"oral, patients with advanced solid tumors",30 to 252 min
same,ASP9853 plasma exposure (AUC24) when administered in combination with docetaxel,"sample size too small for statistical significance, data not shown",appeared lower
